Experimental data reported in US6511798B1, “Methods for the preparation of cell monolayers” (Zeneca Limited, priority 1998, dated 2003).
Where two headings read alike, the source gives them in different places. One block for each compound: values may come before it.

Legend:
[1] = test system: cell monolayers on BIOCOAT "3 day" system or polycarbonate filters; details: cited from earlier work
P-glycoprotein = P-glycoprotein (Homo sapiens, UniProt P08183); details: 6 well Biocoat inserts; without verapamil
Chain of P-glycoprotein (P08183 whole entry): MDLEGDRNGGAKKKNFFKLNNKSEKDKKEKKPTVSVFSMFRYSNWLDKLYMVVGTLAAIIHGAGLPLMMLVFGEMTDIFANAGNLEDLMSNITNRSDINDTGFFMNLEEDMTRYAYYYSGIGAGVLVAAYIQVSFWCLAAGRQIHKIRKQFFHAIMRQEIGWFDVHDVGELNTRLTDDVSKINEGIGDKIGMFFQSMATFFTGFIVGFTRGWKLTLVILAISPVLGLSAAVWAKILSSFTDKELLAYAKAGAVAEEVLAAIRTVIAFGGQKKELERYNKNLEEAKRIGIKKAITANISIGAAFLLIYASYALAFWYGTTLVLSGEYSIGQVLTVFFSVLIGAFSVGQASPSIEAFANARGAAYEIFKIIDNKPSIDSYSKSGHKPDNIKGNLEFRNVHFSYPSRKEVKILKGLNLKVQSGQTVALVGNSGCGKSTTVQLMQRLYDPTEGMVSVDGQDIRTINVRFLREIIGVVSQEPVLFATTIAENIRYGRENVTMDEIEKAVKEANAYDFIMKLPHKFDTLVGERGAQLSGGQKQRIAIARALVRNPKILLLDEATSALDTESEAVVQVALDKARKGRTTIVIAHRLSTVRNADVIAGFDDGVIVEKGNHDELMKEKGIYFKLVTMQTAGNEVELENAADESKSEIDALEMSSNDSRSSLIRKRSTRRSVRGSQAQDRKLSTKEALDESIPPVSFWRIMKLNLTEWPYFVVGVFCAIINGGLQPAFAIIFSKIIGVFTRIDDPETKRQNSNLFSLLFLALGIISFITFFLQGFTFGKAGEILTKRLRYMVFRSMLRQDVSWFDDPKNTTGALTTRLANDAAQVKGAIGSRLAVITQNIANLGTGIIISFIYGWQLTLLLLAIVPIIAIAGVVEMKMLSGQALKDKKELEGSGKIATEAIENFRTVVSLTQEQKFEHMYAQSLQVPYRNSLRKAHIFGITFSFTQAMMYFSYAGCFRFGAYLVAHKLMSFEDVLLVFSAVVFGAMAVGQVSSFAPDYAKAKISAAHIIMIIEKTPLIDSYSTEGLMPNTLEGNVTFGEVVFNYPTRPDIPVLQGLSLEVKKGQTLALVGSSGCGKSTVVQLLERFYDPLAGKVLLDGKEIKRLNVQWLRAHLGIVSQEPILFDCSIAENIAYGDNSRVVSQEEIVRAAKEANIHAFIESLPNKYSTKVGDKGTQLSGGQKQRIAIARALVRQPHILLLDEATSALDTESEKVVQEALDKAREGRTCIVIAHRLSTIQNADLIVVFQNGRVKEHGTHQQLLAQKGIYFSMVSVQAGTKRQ
Method: (§1) Solutions of drug for screening are prepared with Hank's Balanced Salts solution (HBSS) buffered to pH7.4 with HEPES. Up to 1% DMSO may be added to aid solubilisation. These drug solutions are added to either the apical (1.5 ml) or the basolateral (3.0 ml) chambers of a 6 well system, and HBSS at pH7.4 is added to the opposite chamber. 0.5 ml samples are taken at regular time intervals from the receiver chamber and the volume replaced with fresh pre-warmed HBSS at pH7.4. A donor sample is taken initially and at the final time point. Samples are analysed using appropriate methods. The volumes are modified accordingly for other plate formats (e.g. 400 μL apical volume, 1 mL basolateral volume for a 24 well plate).

[2] = molecular target: T1, apical di-peptide transporter (Homo sapiens, UniProt P46059); experiment: Transport of 14C-Gly-sar across Caco-2 monolayers, A-B and B-A; format: in vitro ADME; details: pH 6 and 7.4
T1 construct: show functional expression of the dipeptide carrier and p-glycoprotein; endogenous in cells; host or cells: Caco-2 (ECACC 86010202)
T1 sequence (P46059 1-708): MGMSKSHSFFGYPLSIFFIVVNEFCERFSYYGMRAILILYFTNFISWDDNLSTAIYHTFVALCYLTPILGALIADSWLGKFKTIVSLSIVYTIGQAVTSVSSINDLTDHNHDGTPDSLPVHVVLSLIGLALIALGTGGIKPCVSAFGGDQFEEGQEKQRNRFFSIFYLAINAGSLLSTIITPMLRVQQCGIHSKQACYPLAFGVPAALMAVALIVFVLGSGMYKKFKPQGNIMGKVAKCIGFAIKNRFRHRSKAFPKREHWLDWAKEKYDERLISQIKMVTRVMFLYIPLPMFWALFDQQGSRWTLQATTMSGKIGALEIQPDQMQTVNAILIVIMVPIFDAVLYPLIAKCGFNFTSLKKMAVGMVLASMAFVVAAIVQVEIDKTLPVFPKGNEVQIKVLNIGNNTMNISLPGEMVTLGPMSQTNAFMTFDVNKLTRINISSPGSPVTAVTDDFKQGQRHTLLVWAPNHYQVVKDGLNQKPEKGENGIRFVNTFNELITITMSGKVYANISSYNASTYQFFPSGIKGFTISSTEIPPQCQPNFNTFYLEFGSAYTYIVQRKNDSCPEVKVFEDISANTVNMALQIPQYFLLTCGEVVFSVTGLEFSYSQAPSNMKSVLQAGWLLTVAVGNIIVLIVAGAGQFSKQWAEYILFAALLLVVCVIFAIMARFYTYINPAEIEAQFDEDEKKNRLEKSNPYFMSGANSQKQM
Method: Samples are analysed using appropriate methods.

in vitro = details: human, Caco-2, pH 7.4
Method: (§2) This was carried out with the hydrophilic markers, ^14C-mannitol and Lucifer Yellow.
as §1
(§3) The results are expressed as cumulative amount or percentage transported versus time. An absorption apparent permeability coefficient, Papp, can been calculated where: [formula]
(§4) where dQ/dt is the permeability rate (over the linear portion of the curve), C0 is the initial concentration in the donor chamber and A (cm^2) is the surface area of the filter insert supporting the cell monolayer.

Caco-2 cell monolayer = experiment: in vitro
Method: as §2, §1, §3, §4

[3] = Polycarbonate (1), Artursson et al 1996, 14C-mannitol

Compound: OC[C@@H](O)[C@@H](O)[C@H](O)[C@H](O)CO [^3H-Mannitol]
Papp [1]: 0.76 cm.s^−1 × 10^6

Compound: CC[C@]1(O)C[C@@H]2CN(CCc3c([nH]c4ccccc34)[C@@](C(=O)OC)(c3cc4c(cc3OC)N(C)[C@H]3[C@@](O)(C(=O)OC)[C@H](OC(C)=O)[C@]5(CC)C=CCN6CC[C@]43[C@@H]65)C2)C1 [^3H-vinblastine]
transport B to A versus A to B (P-glycoprotein): significantly greater B to A transport

Compound: Lucifer Yellow
% Transported/hour (Caco-2 cell monolayer; Caco-2): 0.13% | Average Lucifer Yellow Transported (Caco-2 cell monolayer; Caco-2): 0.13% | % Transported/hour ([1]; Polycarbonate (4), Hidalgo et al 1989, Lucifer Yellow): 0.11%

Second part, led by results:

transport A-B versus B-A ([2]; 24 well PET inserts): increased transport in the A-B direction | transport A-B versus B-A ([2]; collagen coated 6 well Biocoat filters): increased transport in the A-B direction
Compound: CN(CC(=O)O)[14C](=O)CN [^14C-Gly-sar]

Papp at 60 min (in vitro): ~0.4 ×10⁻⁶ cm/s | Papp (Caco-2 cell monolayer; Caco-2): 0.4 cm.s^−1 × 10^6 | % Transported/hour (Caco-2 cell monolayer; human, Caco-2, 1 h, pH 7.4): <0.5% | Average Mannitol Transported (Caco-2 cell monolayer; human, Caco-2, 60 min, pH 7.4): 0.36-0.40%
Compound: OC[C@@H](O)[C@@H](O)[C@H](O)[C@H](O)CO [^14C-Mannitol, ^14C-mannitol]
Papp ([1]; BIOCOAT "3 day" system, 14C-mannitol): <4.0 cm.s^−1 × 10^6 | % Transported/hour [1, 3]: 0.05% | Papp [1, 3]: 0.1-1.0 cm.s^−1 × 10^6 | % Transported/hour ([1]; Polycarbonate (3), Taub 1997, 14C-mannitol): 1.5%
